Experiments:
Assay type in all cases: cell-based
rat glioma C6 cells = experiment: MTT proliferation assay, glioma C6; conditions: 96 h
Method: (§1) The anticancer effect of compounds was tested in non-small cell lung cancer A549, colon carcinoma HT-29, and glioma C6 cells. The cells were exposed to either culture medium as the control culture or the compounds in concentrations of 10, 25, 50, and 100 μmol dm^−3. […] Cisplatin was used as a reference drug.
(§2) Human non-small cell lung cancer A549 (Cat. No. 86012804), human colon adenocarcinoma HT-29 (Cat. No. 91072201), rat glioma C6 (Cat. No. 92090409) cell lines were obtained from the PHE Culture Collections (Public Health England Culture Collections, Porton Down, Salisbury, UK). Primary culture of normal human skin fibroblasts (HSF) was obtained by the outgrowth technique from skin explants of young persons in our laboratory. The cells were kept in the following culture media purchased from Sigma (Sigma Chemicals, St. Louis, MO, USA): A549—3:1 mixture of DMEM and Nutrient mixture F-12 Ham; C6 and HSF—DMEM, HT-29—1:1 mixture of DMEM and Nutrient mixture F-12 Ham. All media were supplemented with 10 % FBS (Sigma), penicillin (100 U cm^−3, Sigma) and streptomycin (100 μg cm^−3, Sigma). The cultures were kept at 37 °C in a humidified atmosphere of 95 % air and 5 % CO2.
(§3) Cancer cells were plated on 96-well microplates at a density of 1 × 10^4 (A549), 3 × 10^4 (HT-29), and 0.5 × 10^4 (C6) cells cm^−3. Next day, the culture medium was removed and the cells exposed to serial dilutions of compounds (10, 25, 50, and 100 μmol dm^−3) in a fresh medium. Cell proliferation was assessed after 96 h using the MTT method in which the yellow tetrazolium salt (MTT) is metabolized by viable cells to purple formazan crystals. The cancer cells were incubated for 3–4 h with MTT solution (5 mg cm^−3). Formazan crystals were solubilized overnight in the SDS buffer (10 % SDS in 0.01 mol dm^−3 HCl) and the product quantified spectrophotometrically by measuring absorbance at the 570 nm wavelength using a Elx800 microplate reader (BIO-TEK, Highland Park, Winooski, Vermont, USA).

[1] = system: human non-small cell lung cancer A549; experiment: MTT proliferation assay, A549; conditions: A549 cells, 96 h
Method: as §1, §2, §3

[2] = system: human colon carcinoma HT-29; experiment: MTT proliferation assay, HT-29; conditions: HT-29 cells, 96 h
Method: as §1, §2, §3

[3] = system: normal human skin fibroblasts HSF; experiment: LDH cytotoxicity assay, skin fibroblasts; conditions: 24 h; for Effect on death cells in the culture (protective properties, LDH): 10–100 μmol dm^−3
Method: Additionally, the influence of compounds on normal human skin fibroblast primary culture (HSF) was assessed. HSF cells were exposed to compounds (10–100 μmol dm^−3) for 24 h and the level of lactic dehydrogenase (LDH) released from the damaged cells was measured (LDH method). […] Only compound 2c in all tested concentrations and 2b in the concentration 100 μmol dm^−3 were highly toxic for skin fibroblasts. […] This may indicate protective properties of the compounds.
as §2
Skin fibroblasts HSF were plated on 96-well microplates at a density of 1 × 10^5 cells cm^−3. The following day, the culture medium was removed and the cells exposed to serial dilutions of compounds (10, 25, 50, and 100 μmol dm^−3) diluted in a fresh culture medium with a reduced amount of FBS (2 %). Cytotoxicity was detected after 24 h with the use In Vitro Toxicology Assay Kit, Lactic Dehydrogenase based (Sigma). The assay is based on the reduction of NAD by the action of lactic dehydrogenase (LDH) released from damaged cells. The resulting NADH is utilized in the stoichiometric conversion of a tetrazolium dye. The resulting coloured compound is measured spectrophotometrically. The test was carried out according to the kit procedure. The colour product was quantified spectrophotometrically at 450 nm wavelength using an Elx800 microplate reader.

Structure (SMILES) | IC50 (rat glioma C6 cells; Rattus norvegicus) | IC50 ([1]; Homo sapiens) | IC50 ([2]; Homo sapiens) | Effect on death cells in the culture (protective properties, LDH) [3] | further results
Cc1c(O)ccc(-c2nc3n[nH]cc3c(=O)s2)c1O [1a, 6-(2,4-Dihydroxy-3-methylphenyl)pyrazolo[3,4-d][1,3]thiazin-4(2H)-one] | 17.2 µM | 9.2 µM | 102 µM | induced a decrease of death cells in the culture | 
Cc1cc(-c2nc3n[nH]cc3c(=O)s2)c(O)cc1O [1b, 6-(2,4-Dihydroxy-5-methylphenyl)pyrazolo[3,4-d][1,3]thiazin-4(2H)-one] | 35.8 µM |  | 109 µM |  | 
CCc1cc(-c2nc3n[nH]cc3c(=O)s2)c(O)cc1O [1c, 6-(5-Ethyl-2,4-dihydroxyphenyl)pyrazolo[3,4-d][1,3]thiazin-4(2H)-one] | 23.1 µM | 32.2 µM | 20.9 µM | induced a decrease of death cells in the culture | 
COc1c(O)ccc(-c2nc3n[nH]cc3c(=O)s2)c1O [1e, 6-(2,4-Dihydroxy-3-methoxyphenyl)pyrazolo[3,4-d][1,3]thiazin-4(2H)-one] | 101 µM |  |  |  | 
CCCc1nn(C)c2c(=O)sc(-c3ccc(O)cc3O)nc12 [2a, 5-(2,4-Dihydroxyphenyl)-1-methyl-3-propylpyrazolo[4,3-d][1,3]thiazin-7(1H)-one] | 48.9 µM | 56.1 µM |  |  | 
CCCc1nn(C)c2c(=O)sc(-c3ccc(O)c(C)c3O)nc12 [2b, 5-(2,4-Dihydroxy-3-methylphenyl)-1-methyl-3-propylpyrazolo[4,3-d][1,3]thiazin-7(1H)-one] |  |  |  |  | Cytotoxicity (LDH release) ([3]; concentration 100 μmol dm^−3): highly toxic
CCCc1nn(C)c2c(=O)sc(-c3cc(C)c(O)cc3O)nc12 [2c, 5-(2,4-Dihydroxy-5-methylphenyl)-1-methyl-3-propylpyrazolo[4,3-d][1,3]thiazin-7(1H)-one] | 27.1 µM |  | 157 µM |  | Cytotoxicity (LDH release) ([3]; all tested concentrations (10–100 μmol dm^−3)): highly toxic
CCCc1nn(C)c2c(=O)sc(-c3cc(CC)c(O)cc3O)nc12 [2d, 5-(5-Ethyl-2,4-dihydroxyphenyl)-1-methyl-3-propylpyrazolo[4,3-d][1,3]thiazin-7(1H)-one] | 32.2 µM | 35 µM |  |  | 
CCCc1nn(C)c2c(=O)sc(-c3cc(Cl)c(O)cc3O)nc12 [2e, 5-(5-Chloro-2,4-dihydroxyphenyl)-1-methyl-3-propylpyrazolo[4,3-d][1,3]thiazin-7(1H)-one] | 31.8 µM |  |  |  | 
Cc1c(O)ccc(-c2nc3[nH]cnc3c(=O)s2)c1O [3a, 5-(2,4-Dihydroxy-3-methylphenyl)imidazo[4,5-d][1,3]thiazin-7(3H)-one] | 33.1 µM | 48.8 µM |  | induced a decrease of death cells in the culture | 
Cc1cc(-c2nc3[nH]cnc3c(=O)s2)c(O)cc1O [3b, 5-(2,4-Dihydroxy-5-methylphenyl)imidazo[4,5-d][1,3]thiazin-7(3H)-one] |  |  |  | induced a decrease of death cells in the culture | 
CCc1cc(-c2nc3[nH]cnc3c(=O)s2)c(O)cc1O [3c, 5-(5-Ethyl-2,4-dihydroxyphenyl)imidazo[4,5-d][1,3]thiazin-7(3H)-one] | 8.2 µM | 49.8 µM | 75.4 µM | induced a decrease of death cells in the culture | 
O=c1sc(-c2cc(Cl)c(O)cc2O)nc2[nH]cnc12 [3d, 5-(5-Chloro-2,4-dihydroxyphenyl)imidazo[4,5-d][1,3]thiazin-7(3H)-one] | 53.5 µM |  |  |  | 
Cc1cc(-c2nc3[nH]cnc3c(=O)s2)c(O)cc1O [4a, 5-(2,4-Dihydroxy-5-methylphenyl)imidazo[4,5-d][1,3]thiazin-7(1H)-one] |  |  |  | induced a decrease of death cells in the culture | 
CCc1cc(-c2nc3nc[nH]c3c(=O)s2)c(O)cc1O [4b, 5-(5-Ethyl-2,4-dihydroxyphenyl)imidazo[4,5-d][1,3]thiazine-7(1H)-one] | 89.7 µM |  |  |  | 
O=c1sc(-c2cc(Cl)c(O)cc2O)nc2nc[nH]c12 [4c, 5-(5-Chloro-2,4-dihydroxyphenyl)imidazo[4,5-d][1,3]thiazine-7(1H)-one] | 18.3 µM | 46.7 µM | 61.4 µM |  | 
N.N.[Cl][Pt][Cl] [cisplatin, reference compound] |  |  |  |  | IC50 (rat glioma C6 cells): 0.4 µM; IC50 [1]: 4.3 µM; IC50 [2]: 6 µM
